Assay results as given in patent US20260207535A1, “CRIBLAGE INHIBITEURS USP8” (COMMISSARIAT A L'ENERGIE ATOMIQUE ET AUX ENERGIES …, priority 2022, published 2026).

Columns and labels:
AtT-20 pituitary cells = test: Inhibition of ACTH secretion in pituitary cells (ACTH EIA on supernatant); type: cell-based, mouse; conditions: 25 μM, 24-hour treatment
Method: ACTH release (percent comparison to DMSO control). Briefly, 12,500 AtT-20 cells per well were seeded in a 96-well plate. After 24 hours exposure, cells were treated with each compound at the indicated final concentration, or with DMSO alone (control condition compound solvent) or with corticotropin releasing factor (indicated CRF) at 100 nM. After a 24-hour treatment, cell supernatants were collected and stored at −80° C., prior to quantification of ACTH concentration using ACTH chemiluminescent EIA kit (Phoenix Pharmaceuticals, Inc.). Determination of ACTH concentrations was based on the best-fitting ACTH standard curve and P values were calculated using one-way ANOVA, using Prism 9 software (GraphPad Software, Inc.) ns (P=0.12). **P<0.002. ***P<0.001. All compounds were tested in technical triplicates. One representative experiment out of three is presented.
FIG. 4: illustrates a decrease of ACTH secretion by AtT-20 cells after 24-hour treatment of halogenated salicylanilides. 12,500 AtT-20 cells per well were seeded in a 96-well plate. […] After a 24-hour treatment, cell supernatants were collected and stored at −80° C., prior to quantification of ACTH concentration using ACTH chemiluminescent EIA kit (Phoenix Pharmaceuticals, Inc.). Determination of ACTH concentrations was based on the best-fitting ACTH standard curve and P values were calculated by ordinary one-way ANOVA using Prism 6 software (GraphPad Software, Inc), ns (not significant), **** P<0.0001. Compounds were tested in technical triplicates.
12,500 AtT-20 cells per well were seeded in a 96-well plate. After 24 hours, cells were treated with compounds (corresponding chemical formula are indicated in Table 1) at 25 μM final concentration, or with DMSO alone (compound solvent). After a 24-hour treatment, cell supernatants were collected and stored at −80° C., prior to quantification of ACTH concentration using ACTH chemiluminescent EIA kit (Phoenix Pharmaceuticals, Inc.). Determination of ACTH concentrations was based on the best-fitting ACTH standard curve and P values were calculated by ordinary one-way ANOVA using Prism 6 software (GraphPad Software, Inc), ns (not significant), *P<0.05, ***P<0,0001. Compounds were tested in technical triplicates.
Mouse AtT-20 pituitary cell line were used as a powerful and well-characterized model to monitor ACTH secretion using an enzyme immunoassay (EIA) kit.
Mouse AtT-20 cells were obtained from the American Type Culture Collection and maintained on DMEM containing 10% fetal bovine serum, 100 μg/mL streptomycin and 100 U/mL penicillin at 37° C. with 5% CO2 after recovery from long-term storage on liquid nitrogen-vapor phase.
The ACTH secretion levels of AtT-20 cell culture was monitored on the supernatant of AtT-20 cells treated or not by increasing doses of compounds belonging to the family of halogenated salicylanilides chemicals.
1.25×10^4 AtT20 cells were seeded on polylysine-coated 96-well culture vessels on 150 μL of complete medium. After 24 hours, cells were treated with stock compounds to a final DMSO concentration of 0.5%. After 24 hours of treatment, cell culture supernatant was collected, cleared for 10 min at 1000×g at 4° C., diluted or not in assay buffer (Phoenix Peptide ACTH EIA EK-001-21) and frozen at −80° C. for subsequent processing according to the instructions of the kit's manufacturer.

AtT-20 cells = test: Cytotoxicity towards AtT-20 cells (PrestoBlue viability assay); conditions: for AtT-20 cell viability (PrestoBlue assay) % of control (DMSO) at 25 μM Mean (SD): 24-hour exposure
Description: The AtT-20 cells viability was monitored in the conditions used to follow ACTH secretion. The viability of treated cells was concomitantly evaluated using a Cell Viability Reagent (monitoring of the cells' reducing capacity) (PrestoBlue® assay, Molecular Probes) with the aim to determine non-toxic doses of cell treatment.
After the collection of the supernatant sample for the ACTH assay in the previous step, cells were supplemented with the PrestoBlue™ cell viability reagent (Invitrogen™ A13261) at 10% final volume, and re-incubated at 37° C. for 30 minutes. Fluorescence was then read with a FLUOstar OPTIMA microplate reader.

SMILES: Cc1ccc(NC(=O)c2cc(Cl)ccc2O)cc1 [OSSL-122817]
- inhibition of ACTH at 25 μM, in words (FIG. 4, FIG. 5) (AtT-20 pituitary cells): ineffective
- activity at 25 µM (AtT-20 pituitary cells; Mus musculus, AtT20, AtT-20 supernatant, read-out: ACTH secretion % of control (DMSO) at 25 μM): 118%

SMILES: O=C(Nc1ccc(Oc2ccc(Cl)cc2)c(Cl)c1)c1cc(I)cc(I)c1O [Rafoxanide, reference compound]
- inhibition of ACTH at 25 μM, in words (FIG. 4, FIG. 5) (AtT-20 pituitary cells): significant inhibition
- ACTH secretion % of control (DMSO) at 25 μM (AtT-20 pituitary cells; AtT-20 supernatant, listed as Rafoxanide Amb2704313, 25 µM): 33%
- ACTH secretion % of control (DMSO) at 25 μM (AtT-20 pituitary cells; AtT-20 supernatant, listed as Rafoxanide MCE HY-17598, 25 µM): 57%
- cytotoxicity on AtT-20 cells, in words (FIG. 6) (AtT-20 cells; 25 μM for 24 hours): partially cytotoxic
- AtT-20 cell viability (PrestoBlue assay) % of control (DMSO) at 25 μM Mean (SD) (AtT-20 cells; listed as Rafoxanide Amb2704313): 39.30 (6.852) %
- AtT-20 cell viability (PrestoBlue assay) % of control (DMSO) at 25 μM Mean (SD) (AtT-20 cells; listed as Rafoxanide MCE HY-17598): 56.15 (3.536) %
